Patent US20030216569A1, “Method of making HIV protease inhibitors” (priority 1993, published 2003)
Values after ≈ are worked out from the molar mass of the structure shown. Values joined by “and” are separate entries in the source; they are usually repeats but may differ in a detail not shown here. Equal values may be shown once. Read-outs that look alike come from different tables or passages of the source.

Experiments:
[1] = system: HIV-1 isolates IIIB and/or RF in CEM cells; assay: SRI primary anti-HIV screen, MTT assay of inhibition of HIV-induced cell killing in CEM cells; type: cell-based; conditions: for SRI CEM IC50: CEM cells; for IC50: Human immunodeficiency virus 1, IIIB, CCRF-CEM, read-out: SRI CEM IC50 ng/mL, CEM cells
Experimental: (§1) A. Principle of MTT Assay:
This assay involves the conversion of the tetrazolium dye MTT to a colored formazan product by mitochondrial enzymes in metabolically active cells. This assay system is used at SRI to screen over 30,000 compounds per year. Briefly, the assay involves the infection of CEM or MT2 cells in round bottom 96-well plates. The compound of interest is added just prior to infection. Following 6 days of incubation at 37° C. the plates are stained with MTT. The results of the assay are quantitated spectrophotometrically on a Molecular Devices Vmax plate reader. The data are analyzed by linear regression utilizing an in-house software program to calculate antiviral activity (IC25, IC50, IC95) and toxicity (TC25, TC50, TC95) as well as other values.
(§2) Primary antiviral assays are routinely performed in CEM or MT-2 cells.
(§3) B. Standard Screening Assays in CEM and MT-2 Cells
(§4) 1. Compound dilution and delivery to the plates
(§5) Drugs are solubilized in the appropriate vehicle such as distilled water or DMSO if necessary. Latex gloves, lab coats and masks are used during all phases of the handling process to prevent exposure to potentially harmful agents. The drug is prepared at the appropriate concentration and stored at −20° C. until used by the screening laboratory. The first dilution of each compound is made in a dilution tube with medium to yield a concentration two-fold that of the highest test concentration. Sterile titer tubes are then used to make serial one half-log dilutions of each compound. Following drug dilution, the diluted compound is added to the appropriate well of a 96-well microtiter plate. Up to 12 dilutions can be assayed conveniently in triplicate on a single plate with all appropriate controls including cell control, virus control, toxicity control, drug color control, medium control and plastic (background) control. When testing includes only six dilutions, two drugs can be assayed on a single microtiter plate. The drugs are added to the plate in a final volume of 100 microliters.
(§6) During the time the drug dilutions are prepared, cells are washed and counted. Viability is monitored by trypan blue dye exclusion and assays are not performed if the viability falls below 90%. Cells are maintained in an exponential growth phase and are split 1:2 on the day prior to assay to assure exponential growth rate.
(§7) For the primary screen, the cell lines utilized are CEM and MT-2. Unless otherwise indicated, the medium used is RPMI 1640 with 10% heat-inactivated fetal calf serum (FBS), glutamine and antibiotics.
(§8) Cells are propagated at 37° C. in an atmosphere of 5% CO2 in air. The virus employed for this work is HIV-1 isolates IIIB and/or RF, which are prepared by an acute infection process.
(§9) Briefly, virus-infected cells are pelleted on a daily basis beginning at three days post-infection until the virus has killed all of the cells in the culture. Reverse transcriptase activity and p24 ELISA are used to identify pools with the greatest amout of virus.
(§10) These 24-hour harvests are pooled, filtered and frozen at −90° C. Prior to use in the assay, the infectious pool of virus is titered on all available cell lines in order to determine the amount of virus required in the antiviral assay.
(§11) In general, pools produced by the acute infection method require the addition of one microliter of infectious virus per well resulting in the screening of drugs at a multiplicity of infection of 0.01. In this manner, enough virus is prepared and frozen to complete over one thousand microtiter plates, allowing the testing of up to two thousand compounds from a single stock of infectious virus.
Virus infection of the CEM and MT-2 cells for the antiviral assay is carried out in a bulk infection process.

[2] = system: HIV-1 isolates IIIB and/or RF in MT-2 cells; assay: SRI primary anti-HIV screen, MTT assay of inhibition of HIV-induced cell killing in MT2 cells; type: cell-based; conditions: for IC50: Human immunodeficiency virus 1, IIIB, MT2, read-out: SRI MT2 IC50 ng/ml, MT2 cells; for SRI MT2 IC50: MT2 cells
Description: I. Primary Drug Screening of Anti-HIV Compounds at Southern Research Institute (SRI) (Results recorded in Table 1 are designated “SRI CEM (ng/ml)” or “SRI MT2 (ng/ml)”)
as §1
SRI has an established program for the primary antiviral analysis of compounds in microtiter assays which measures the ability of a selected compound to inhibit HIV-induced cell killing. This assay involves the conversion of the tetrazolium dye MTT to a colored formazan product by mitochondrial enzymes in metabolically active cells. This assay system is used at SRI to screen over 30,000 compounds per year. Briefly, the assay involves the infection of CEM or MT2 cells in round bottom 96-well plates. The compound of interest is added just prior to infection. Following 6 days of incubation at 37° C. the plates are stained with MTT. The results of the assay are quantitated spectrophotometrically on a Molecular Devices Vmax plate reader. The data are analyzed by linear regression utilizing an in-house software program to calculate antiviral activity (IC25, IC50, IC95) and toxicity (TC25, TC50, TC95) as well as other values.
as §2, §3, §4
as §5, with “Up to 12 dilutions can be assayed conveniently in triplicate on a single plate with all appropriate controls including cell control, virus control, toxicity control, drug color control, medium control and plastic (background) control.” left out
as §6, §7, §8, §9, §10
as §11, with “virus. The use of a single stock of virus for a long period of testing has very favorable effects on the repeatability of the assay systems. […]” for “virus.”

[3] = system: Viral SN123 infected CEM cells; conditions: values in parentheses are 35B in same assay
Experimental: Purpose: To determine IC50 CC50 for compounds:
Media A [1% DMSO] (100 microliters DMSO+9.9 ml media A)
CEM cells @ [1×10^4] cells/ml (4 plate=40 ml) (6 plate=60 ml)
(need 70 microliters of each)
A-D at [10 mM] in 100% DMSO
4 or 6 u-bottom 96-well plates
4 flat bottom 96-well plates for dilutions
8-10 boxes of sterile costar tips
Approximately 10 reagent trays
1000 cells/well=1×10^4 cells/ml=1000 cells/100 microliters 200 microliters=total volume in a well
Cell Preparation and Plating of Cells, Media A and Media A (1% DMSO)
a. Number a 96-well tissue culture plate for each compound tested, one for a control plate, and one for the control compound.
b. Count cells on hemacytometer and resuspend them in 40 ml or 80 ml of Media A at a concentration of [1×10^4]0 cells/ml.
Counting Cells on a Hemacytomer:
Label two 1.8 ml nuc tubes 1 and 2.
Put 0.5 ml of well mixed CEM cells (in growth phase) in tube 1.
Put 50 micoliters PBS and 40 microliters of trypan blue into tube 2.
Mix up the cells in tube 1 then remove 10 microliters of cells and put them into tube 2.
Mix well in tube 2, then remove 10 microliters of the stained cells and put them on the hemacytometer.
Count the number of cells in the center square of the hemacytometer with the microscope set on 10×.
The concentration of the stock CEM's in cells/ml is as follows:
Cells counted×1×10^5=Concentration of CEM's in [cells/ml].
c. Add 200 microliters Media A to: A1 of places 2-6. These are Blanks. A4-H4 of plate 1. These are Blanks.
d. Add 5 microlicers Media A to all wells of Rows A-D of plates 2-6 except A1 (the top half of each plate).
e. Add 50 microliters of Media A to wells A1-D3 of Plate 1 (the top half of the plate).
f. Add 50 microliters Media A[l% DMSO] to all wells of Columns 1-3 of plate 1.
This puts 1000 cells/well.
h. Put plates in an incubator while doing drug dilutions.
Preparation Control and Test Drugs
(1) Put 60 microliters of DMSO into all wells of Columns 2-12, Rows A-E.
(3) Put 70 microliters of A [10 mM] at 100% DMSO into well B1.
(4) Put 70 microliters of B [10 mM] at 100% DMSO into well C1.
(5) Put 70 microliters of C [10 mM] at 100% DMSO into well D1.
(6) Put 70 microliters of D [10 mM] at 100% DMSO into well E1.
Change tips before each dilution.
(1) In rows A-E of another plate make a row for the first 1:10 dilution to correspond to each compound's 100% DMSO row.
A into Row B for the first 1:10 dilution.
B into Row C for the first 1:10 dilution.
C into Row D for the first 1:10 dilution.
D into Row E for the first 1:10 dilution.
(2) Put 180 microliters of media A into all wells of rows A-E corresponding to the 100% DMSO rows. 2.5 ml needed per row.
(3) Remove 20 microliters from all wells of each row of the 100% DMSO rows and transfer it to the corresponding 1:10 row.
(1) Make a plate for every 3 compounds to be tested.
Use 20 ml of media A per plate.
(3) Transfer 25 microliters of each compound from the row in the 1:10 dilution to the corresponding two rows on the 1:100 dilution plate changing tips before each transfer.
Addition of Viral SN123 to Plates
a. Thaw Sn123 in 37° C. water bath for approximately 10 minutes.
b. Dilute Sn123 1:16 by adding 1 ml of Sn123 to 15 ml of media A.
c. Add 50 microliters of Sn123 [1:16] to wells E1-H12 of plates 2-6 and to wells E1-H3 of plate 1.
Addition of Drugs to Plates
a. Add 50 microliters of the control and test drugs from the rows in the 1:100 dilution plates to the appropriate rows in the final plates (changing tips before each transfer). One row in the 1:100 plate will do 4 rows in the final plate. Leave A1 blank.
b. Incubate all plates 7 days at 37° C. 5% CO2.
c. Do Xtt protocol on day 7 as follows:
d. Preparation of Xtt/PMS Solution: (4 plate=20 ml) (6 plate=30 ml)
100 microliters [100 mM] PMS+4.9 ml PBS=PMS at [2 mM]
(2) Heat 500 ml of H2O in microwave for 5 minutes on high.
(3) Put 20 or 30 ml of phenol red RPMI in a 50 ml centrifuge tube.
(4) Put the RPMI in the beaker of hot water.
(5) Add 20 or 30 mg of XTT to the warmed up RPMI.

[4] = Human immunodeficiency virus 1, CCRF-CEM, read-out: Whole cell IC50 nM, CEM cells
[5] = Human immunodeficiency virus 1, CCRF-CEM, read-out: Whole cell IC90 nM, CEM cells

| Compound | SRI CEM IC50 [1] | IC50 [1] | IC50 [2] | SRI MT2 IC50 [2] | IC50 [3, 4] | IC90 [3, 5] | IC50 ([3]; read-out: Whole cell IC50 nM, CEM cells) | IC90 ([3]; read-out: Whole cell IC90 nM, CEM cells) |
| --- | --- | --- | --- | --- | --- | --- | --- | --- |
| CC(C)(C)NC(=O)C1CC2CCCCC2CN1CC(O)C(Cc1ccccc1)NC(=O)c1ccccc1C(F)(F)F (stereo not drawn) [Example 15, [3S-(3R*,4aR*,8aR*,2′S*,3′R*)]-2-[2′-Hydroxy-3′-phenylmethyl-4′-aza-5′-oxo-5′-(2″-trifluoromethylphenyl)pentyl] decahydroisoquinoline-3-N-t-butylcarboxamide] | 1590 ng/mL | 1430 ng/mL (≈ 2.49 µM) | 1680 ng/mL (≈ 2.93 µM) | 1470 ng/mL | – | – | – | – |
| [3S-(3R*,4aR*,8aR*,2′S*,3′S*)]-2-[2′-Hydroxy-3′-phenylmethyl-4′-aza-5′-oxo-5′-[2″-methyl-3″-N-(methylsulfonyl)amino-phenyl)]pentyl] decahydroisoguinoline-3-N-t-butylcarboxamide [Example 36] | 2430 ng/mL and 1730 ng/mL | – | – | 1870 ng/mL and 2300 ng/mL | – | – | – | – |
| Cc1c(O)cccc1C(=O)N[C@@H](CSc1ccc2ccccc2c1)[C@H](O)CN1CCCC[C@H]1C(=O)NC(C)(C)C [Example 25, [2S-(2R*,2′S*,3′S*)]-1-[2′-Hydroxy-3′-(naphth-2-ylthiomethyl-4′-aza-5′-oxo-5′-(2″-methyl-3″-hydroxyphenyl)pentyl]piperidine-2-N-t-butylcarboxamide] | – | 211 ng/mL (≈ 0.374 µM) | 169 ng/mL (≈ 0.3 µM) | – | – | – | – | – |
| CC(C)(C)NC(=O)C1CC2CCCCC2CN1CC(O)C(Cc1ccccc1)NC(=O)c1c(Cl)ccc(O)c1Cl (stereo not drawn) [Example 17, [3S-(3R*,4aR*,8aR*,2′S*,3′R*)]-2-[2′-Hydroxy-3′-phenylmethyl-4′-aza-5′-oxo-5′-(2″,6″-dichloro-3″-hydroxyphenyl)pentyl] decahydroisoquinoline-3-N-t-butylcarboxamide] | 2900 ng/mL and 2500 ng/mL | – | – | 8990 ng/mL and 5390 ng/mL | – | – | – | – |
| CCCc1c(O)cccc1C(=O)NC(Cc1ccccc1)C(O)CN1CC2CCCCC2CC1C(=O)NC(C)(C)C (stereo not drawn) [Example 22, [3S-(3R*,4aR*,8aR*,2′S*,3′R*)]-2-[2′-Hydroxy-3′-phenylmethyl-4′-aza-5′-oxo-5′-(2″-propyl-3″-hydroxyphenyl)pentyl] decahydroisoquinoline-3-N-t-butylcarboxamide] | – | 136 ng/mL (≈ 0.241 µM) | 53 ng/mL (≈ 0.094 µM) | – | 400 nM | 798 nM | – | – |
| CCc1c(O)cccc1C(=O)NC(Cc1ccccc1)C(O)CN1CC2CCCCC2CC1C(=O)NC(C)(C)C (stereo not drawn) [Example 3, [3S-(3R*,4aR*,8aR*,2′S*,3′R*)]-2-[2′-Hydroxy-3′-phenylmethyl-4′-aza-5′-oxo-5′-(2″-ethyl-3″-hydroxyphenyl)pentyl] decahydroisoguinoline-3-N-t-butylcarboxamide] | 11.3 ng/mL | 15.2 ng/mL (≈ 0.0276 µM) | 21.3 ng/mL (≈ 0.0387 µM) | 21.5 ng/mL | 96.1 nM | 286 nM | – | – |
| Cc1c(O)cccc1C(=O)NC(Cc1ccccc1)C(O)CN1CC2CCCCC2CC1C(=O)NC(C)(C)C (stereo not drawn) [Example 23, [3S-(3R*,4aR*,8aR*,2′S*,3′R*)]-2-[2′-Hydroxy-3′-phenylmethyl-4′-aza-5′-oxo-5′-(2″-methyl-3″-hydroxyphenyl)pentyl] decahydroisoquinoline-3-N-t-butylcarboxamide] | 8.62 ng/mL | – | – | 6.27 ng/mL | – | – | 2.39 nM | 19 nM |
| CC(C)(C)NC(=O)C1CC2CCCCC2CN1CC(O)C(Cc1ccccc1)NC(=O)c1cccnc1Cl (stereo not drawn) [Example 2, [3S-(3R*,4aR*,8aR*,2′S*,3′R*)]-2-[2′-Hydroxy-3′-phenylmethyl-4′-aza-5′-oxo-5′-(2″-chloro-pyrid-3″-yl)pentyl] decahydroisoquinoline-3-N-t-butylcarboxamide] | 1580 ng/mL | 1380 ng/mL (≈ 2.55 µM) | 1580 ng/mL (≈ 2.92 µM) | 1630 ng/mL | – | – | – | – |
| CCCCc1c(O)cccc1C(=O)NC(Cc1ccccc1)C(O)CN1CC2CCCCC2CC1C(=O)NC(C)(C)C (stereo not drawn) [Example 21, [3S-(3R*,4aR*,8aR*,2′S*,3′R*)]-2-[2′-Hydroxy-3′-phenylmethyl-4′-aza-5′-oxo-5′-(2″-butyl-3′″-hydroxyphenyl)pentyl] decahydroisoquinoline-3-N-t-butylcarboxamide] | – | 443 ng/mL (≈ 0.767 µM) | 427 ng/mL (≈ 0.739 µM) | – | 414 nM | 886 nM | – | – |
| CC(C)(C)NC(=O)C1CC2CCCCC2CN1CC(O)C(Cc1ccccc1)NC(=O)c1cccc(O)c1Cl (stereo not drawn) [Example 11, [3S-(3R*,4aR*,8aR*,2′S*,3′R*)]-2-[2′-Hydroxy-3′-phenylmethyl-4′-aza-5′-oxo-5′-(2″-chloro-3″-hydroxyphenyl)pentyl] decahydroisoquinoline-3-N-t-butylcarboxamide] | 338 ng/mL | 420 ng/mL (≈ 0.755 µM) | 649 ng/mL (≈ 1.17 µM) | 387 ng/mL | 114 nM | – | – | – |
| CC(C)(C)NC(=O)C1CC2CCCCC2CN1CC(O)C(Cc1ccccc1)NC(=O)c1ccc[n+]([O-])c1 (stereo not drawn) [Example 5, [3S-(3R*,4aR*,8aR*,2′S*,3′R*)]-2-[2′-Hydroxy-3′-phenylmethyl-4′-aza-5′-oxo-5′-(pyrid-3″yl-N-oxidyl)pentyl] decahydroisoquinoline-3-N-t-butylcarboxamide] | 4430 ng/mL | 4970 ng/mL (≈ 9.51 µM) | 7800 ng/mL (≈ 14.9 µM) | 5030 ng/mL | – | – | – | – |
| CC(C)(C)NC(=O)C1CC2CCCCC2CN1CC(O)C(Cc1ccccc1)NC(=O)c1cccc(O)c1F (stereo not drawn) [Example 1, [3S-(3R*,4aR*,8aR*,2′S*,3′R*)]-2-[2′-Hydroxy-3′-phenylmethyl-4′-aza-5′-oxo-5′-(2″-fluoro-3″-hydroxyphenyl)pentyl]decahydroisoquinoline-3-N-t-butylcarboxamide] | 1380 ng/mL | 1000 ng/mL (≈ 1.85 µM) | 1310 ng/mL (≈ 2.43 µM) | 1500 ng/mL | – | – | – | – |
